pKi: −log10 of the molar value.
Biological target: Type-2 angiotensin II receptor (Sus scrofa)
Assay: Displacement of [125I]Ang2 from AT2 receptor in pig uterus myometrium

SMILES | pKi
CC[C@H](C)[C@@H]1Nc2c(Cc3ccc(O)cc3)cc(NC(=O)[C@H](CCCN=C(N)N)NC(=O)[C@@H](N)CC(=O)O)cc2CN(CC(=O)N[C@@H](Cc2cnc[nH]2)C(=O)N2CCC[C@H]2C(=O)N[C@@H](Cc2ccccc2)C(=O)O)C1=O [(3S)-3-amino-3-{[(1S)-1-{[(2S)-2-[(2S)-butan-2-yl]-4-({[(2S)-1-[(2S)-2-{[(1S)-1-carboxy-2-phenylethyl]carbamoyl}pyrrolidin-1-yl]-3-(1H-imidazol-4-yl)-1-oxopropan-2-yl]carbamoyl}methyl)-9-[(4-hydroxyphenyl)methyl]-3-oxo-2,3,4,5-tetrahydro-1H-1,4-benzodiazepin-7-yl]carbamoyl}-4-[(diaminomethylidene)amino]butyl]carbamoyl}propanoic acid] | 8.33
CC[C@H](C)[C@@H]1Nc2c(Cc3ccc(O)cc3)cc(NC(=O)[C@H](CCCN=C(N)N)NC(=O)[C@@H](N)CC(=O)O)cc2CN(CC(=O)N2CCC[C@H]2C(=O)N[C@@H](Cc2ccccc2)C(=O)O)C1=O [(3S)-3-amino-3-{[(1S)-1-{[(2S)-2-[(2S)-butan-2-yl]-4-{2-[(2S)-2-{[(1S)-1-carboxy-2-phenylethyl]carbamoyl}pyrrolidin-1-yl]-2-oxoethyl}-9-[(4-hydroxyphenyl)methyl]-3-oxo-2,3,4,5-tetrahydro-1H-1,4-benzodiazepin-7-yl]carbamoyl}-4-[(diaminomethylidene)amino]butyl]carbamoyl}propanoic acid] | 7.27

Source: BindingDB's records for doi:10.1021/jm051222g (Uppsala University, 2006)
